Data reported in patent publication US7074765B2, “Synthetic peptide analogs of Arg-Pro-Pro-Gly-Phe as selective inhibitors of thrombin and thrombin activation of protease activated receptors 1 and 4” (The Regents of the University of Michigan, priority 2003, dated 2006).

What was measured:
[1] = tested on: normal human citrated plasma; experiment: thrombin clotting time (TCT); format: biochemical; settings: normal human plasma; p<0.05
Protocol: (§1) The influence of the various peptide formulations used in the present invention on established coagulation-based assays was determined. The activated partial thromboplastin time (APTT) is performed by mixing 0.05 ml normal human citrated plasma with 0.05 ml activated partial thromboplastin reagent purchased from Organon Teknika, Research Triangle Park, N.C. in the absence or presence of a peptide inhibitor. After incubation for 5 min at 37° C., the mixture is recalcified with 0.05 ml of 30 mM calcium chloride and the time to clot formation is measured in an Amelung KC4A instrument (Sigma Chemical Corp, St. Louis, Mo.) (Hasan et al. Thrombosis and Haemostasis. 82, 1182–1187 (1999)). The prothrombin time (PT) is performed by mixing 0.05 ml normal human citrated plasma with 0.05 ml Simplastin (Organon Teknika, Research Triangle Park, N.C.) followed by incubation for 3 min at 37° C. in the absence or presence of a peptide inhibitor. At the addition of 0.05 ml of 30 mM calcium chloride, the time to clot formation is measured in an KC4A instrument (Sigma Chemical Corp, St. Louis, Mo.) (Hasan et al. Thrombosis and Haemostasis. 82, 1182–1187 (1999)). The thrombin clotting time (TCT) is performed by adding 0.1 ml normal human citrated plasma in the absence or presence of a peptide inhibitor and 0.05 ml of a α-thrombin solution such that the final concentration of the thrombin in the entire mixture was 1 nM. Upon addition of the thrombin, the time to clot formation is measured in an KC4A instrument (Sigma Chemical Corp, St. Louis, Mo.). In FIG. 5, peptide TH146 produces a significant prolongation (p<0.05) of the activated partial thromboplastin time at 15 μM, of the prothrombin time at 60 μM, and the thrombin clotting time at 15 μM. In FIG. 6, peptide MAP4-TH146 produced a significant prolongation (p<0.05) of the activated partial thromboplastin time at 0.195 μM, of the prothrombin time at 3.125 μM, and the thrombin clotting time at 0.39 μM.

PC-3 cells = experiment: Thrombin-induced motility of prostate cancer cells (Boyden chamber); format: cell-based; settings: 100 μM; 2 nM α-thrombin
Protocol: Motility assays are performed with a modified Boyden chamber (tissue culture-treated, 6.5 mm diameter, 10 μm thickness, 8 μm pores). In the motility assays, 2.5×10^4 cells are plated in the top chamber of non-coated polyethylene teraphthalate (PET) membranes (24-well insert, pore size […]; Becton Dickinson). […] RPMI 10% fetal bovine serum is used as a chemoattractant in the lower chamber. […] The cells that transverse the membranes are stained with Dip-Quick (Jorgensen Laboratories, Loveland, Colo.). Cells in five random fields of view at 200× are counted and expressed as the average number of cells/field of view. […]

[2] = target: T1, recombinant protease activated receptor 1 extracellular domain (rPAR1EC) (Homo sapiens, UniProt P25116); experiment: Inhibition of RPPGF-biotin binding to rPAR1EC; settings: 5 mM peptide, 50 μM RPPGF-biotin (FIG. 7); listed in decreasing order
T1 construct: A portion of the extracellular domain of human PAR1 (Ala^26-Ser^99) (rPAR1EC) was expressed in Escherichia coli; His10-DDDDK (pET19b) (N); made in house; host or cells: E. coli BL21(DE3), pET19b
T1 sequence (P25116 26-99): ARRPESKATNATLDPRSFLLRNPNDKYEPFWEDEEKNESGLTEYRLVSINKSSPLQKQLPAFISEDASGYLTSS

[3] = tested on: platelets in platelet-rich plasma; experiment: γ-thrombin-induced platelet aggregation in platelet-rich plasma; format: cell-based, human
Protocol: Fresh whole blood was collected and mixed with 0.013 M sodium citrate and platelet-rich plasma was prepared according to the method of Meloni et al., J. Biol. Chem. 266, 6786 (1991). Platelet-rich plasma with a normalized platelet count between 2–2.5×10^8 platelets/ml was added to a cuvette of an aggregometer (Chronlog Corp., Havertown, Pa.), standardized using the protocol of Meloni et al., supra. Peptides to be examined were added to the cuvette and the mixture stabilized for a few moments. Once the baseline was stabilized, γ-thrombin (10–70 nM) (Haematologic Technologies, Essex Junction, Vt.) was added to determine the minimal concentration of the agonist necessary to achieve full platelet aggregation. All investigations with peptides were performed using threshold concentrations of γ-thrombin. Aggregation was allowed to proceed for 5 minutes before stopping. When ADP-induced platelet aggregation studies were performed, 1–5 μM ADP (Sigma) was added to the cuvette containing platelet-rich plasma.

[4] = tested on: normal human citrated plasma; experiment: activated partial thromboplastin time (APTT); format: biochemical; settings: normal human plasma; p<0.05
Protocol: as §1

[5] = target: T2, thrombocytin cleavage of recombinant human PAR1 extracellular domain (Homo sapiens, UniProt P25116); experiment: Inhibition of thrombocytin-induced cleavage of rPAR1EC; format: biochemical; settings: 16.7 nM thrombocytin, 45 min, 37° C.; below concentration that blocks the enzyme's proteolytic activity
T2 construct: A portion of the extracellular domain of human PAR1 (Ala^26-Ser^99) (rPAR1EC) was expressed in Escherichia coli; His10-DDDDK (pET19b) (N); made in house; host or cells: E. coli BL21(DE3), pET19b (rPAR1EC)
T2 sequence (P25116 26-99): T1 sequence (P25116 26-99)
Protocol: Thrombocytin is a snake venom enzyme that activates platelets by cleaving PAR1 at the thrombin cleavage site (Santos et al., FEBS Letters. 18, 3570–3577 (2000)). […] The ability of MAP4-rOicPGF to block thrombocytin cleavage of rPAR1EC was performed as follows. One μg of rPAR1EC in 0.01 mM Tris-HCL, 0.2 M NaCl, pH 8.0 was incubated at 37° C. for 15 min or 45 min with 1 nM of α-thrombin or 0.5 μg/mL thrombocytin (16.7 nM), respectively, in the absence or presence of 0.025 to 1 mM MAP4-rOicPGF. The reaction mixture was separated on SDS-PAGE and stained with Coomassie Brilliant Blue. The cleaved gel images were scanned using the software Scion Image, ScionCorp, Frederick, Md.

Substance: β-Ala-Lys-2Lys-4(D-Arg-Oic-Pro-Gly-Phe) [MAP4-rOicPGF]
- concentration giving significant prolongation of the TCT [1]: 0.39 µM
- effect on thrombin-induced PC-3 cell motility (PC-3 cells): block
- blocking of RPPGF-biotin binding to rPAR1EC by peptides [2]: blocked
- concentration that abolished γ-thrombin-induced platelet aggregation ([3]; 40 nM γ-thrombin): ≥ 0.0125 mM
- effect on γ-thrombin-induced platelet aggregation ([3]; 0.006 mM peptide, 40 nM γ-thrombin): returned to pretreatment levels
- effect on γ-thrombin-induced platelet aggregation ([3]; 0.05 mM peptide, 40 nM γ-thrombin): completely abolished
- Concentration of Peptide [mM] That Gives 100% Inhibition ([3]; minimal concentration that blocked γ-thrombin-induced platelet aggregation in platelet-rich plasma): 0.019 mM
- concentration giving significant prolongation of the APTT [4]: 0.195 µM
- concentration that blocks thrombocytin cleavage of rPAR1EC [5]: 0.2 mM
